{"source": "patent US20040180879A1", "about": "“Novel method of treating vasomotor symptoms” (priority 2002, published 2004)", "key": {"[1]": {"system": "morphine-dependent rat model (MD model) of hot flush", "test": "morphine-dependent naloxone-induced flush (MD model) of hot flush, tail skin temperature", "assay_type": "in vivo", "conditions": "for effect of the combination with 5-HT2a receptor antagonist on abating naloxone-induced flush: MDL-100907 0.01 mg/kg sc + desipramine 1 mg/kg or venlafaxine 10 mg/kg sc; for effect on MDL-100907-induced pre-naloxone flush (words): given sc 40 min prior to naloxone, after MDL-100907 0.01 mg/kg (55 min prior), desipramine 1 mg/kg; for effect on MDL-100907-induced pre-naloxone flush (words) / abatement of 5-HT2a receptor antagonist-induced pre-naloxone flush: venlafaxine 10 mg/kg, 15 min pre-naloxone; for abatement of 5-HT2a receptor antagonist-induced pre-naloxone flush: given sc after MDL-100907 (0.01 mg/kg), desipramine 1.0 mg/kg, compared to MDL treated animals"}, "[2]": {"conditions": "desipramine 300-500 mg/day; fluoxetine 20 mg/day; cited from earlier work"}}, "note": "Entries after “also recorded” stand apart in the source; their conditions may differ.", "data": [{"smiles": "COc1cc(CC(C)N)c(OC)cc1I", "note": "(centres unmarked) [DOI]", "values": [{"measurement": "effect of 5-HT2a receptor agonist on MDL-100907-induced flush", "setting": "[1]; DOI 0.3 mg/kg sc, 15 min prior to MDL-100907 (0.01 and 0.1 mg/kg)", "result": "block; also recorded: abated; also recorded: abatement"}]}, {"smiles": "COc1cccc(C(O)C2CCN(CCc3ccc(F)cc3)CC2)c1OC", "note": "(stereo not drawn) [MDL-100907, (+)-α-(2,3-dimethoxyphenyl)-1-[2-(4-fluorophenyl)ethyl]-4-piperidinemethanol]", "values": [{"measurement": "effect of the combination with 5-HT2a receptor antagonist on abating naloxone-induced flush", "setting": "[1]; 15 min post-naloxone, listed as MDL-100902", "result": "enhances desipramine's effect on abating naloxone-induced flush; also recorded: enhances venlafaxine's effect on a naloxone-induced flush"}, {"measurement": "effect of 5-HT2a receptor antagonist on DOI alleviation of naloxone-induced flush", "setting": "[1]; MDL-100907 (0.01 and 0.1 mg/kg sc) after DOI 0.3 mg/kg sc, maximal flush, 15 min post-naloxone", "result": "reverse the efficacy of the 5-HT2a agonist in abating the naloxone-induced flush; also recorded: reversed the DOI alleviation of the naloxone-induced flush"}, {"measurement": "effect on tail skin temperature (TST) prior to naloxone (5-HT2a antagonist-induced flush)", "setting": "[1]; MDL-100907 alone, 0.01 mg/kg sc, 55 min prior to naloxone, 0.01 mg/kg", "result": "induced hot flush; also recorded: induced a significant increase in TST"}, {"measurement": "effect on naloxone-induced hot flush", "setting": "[1]; MDL-100907 alone, 0.01 mg/kg sc, post-naloxone", "result": "enhanced the naloxone-induced hot flush"}]}, {"smiles": "CNCCCN1c2ccccc2CCc2ccccc21", "note": "[desipramine]", "values": [{"measurement": "side effects of high doses alone", "setting": "[2]", "result": "can induce vomiting, nausea, sweating and flushes"}, {"measurement": "effect of the combination with 5-HT2a receptor antagonist on abating naloxone-induced flush", "setting": "[1]; 15 min post-naloxone", "result": "efficacy can be enhanced"}, {"measurement": "abatement of naloxone-induced flush on co-administration with 5-HT2a receptor antagonist", "setting": "[1]; desipramine 1.0 mg/kg sc + MDL-100907 0.01 mg/kg sc, 15 min post-naloxone", "result": 80, "unit": "%"}, {"measurement": "abatement of naloxone-induced hot flush", "setting": "[1]; desipramine alone, approximate ED50 (1.0 mg/kg sc), ovariectomized morphine-dependent rats", "result": 50, "unit": "%"}, {"measurement": "effect on MDL-100907-induced pre-naloxone flush (words)", "setting": "[1]", "result": "abates an MDL-100907-induced flush"}, {"measurement": "effect on MDL-100907-induced pre-naloxone flush (words)", "setting": "[1]; listed as Desipramine", "result": "reversed"}, {"measurement": "abatement of 5-HT2a receptor antagonist-induced pre-naloxone flush", "setting": "[1]", "result": 75, "unit": "%"}]}, {"smiles": "CNCCC(Oc1ccc(C(F)(F)F)cc1)c1ccccc1", "note": "(centres unmarked) [fluoxetine]", "values": [{"measurement": "side effects of high doses alone", "setting": "[2]", "result": "can induce vomiting, nausea, sweating and flushes"}]}, {"smiles": "COc1ccc(C(CN(C)C)C2(O)CCCCC2)cc1", "note": "(centres unmarked) [venlafaxine]", "values": [{"measurement": "effect of the combination with 5-HT2a receptor antagonist on abating naloxone-induced flush", "setting": "[1]; 15 min post-naloxone", "result": "enhanced abatement of a naloxone-induced flush; also recorded: can enhance this effect"}, {"measurement": "effect on MDL-100907-induced pre-naloxone flush (words)", "setting": "[1]", "result": "abates an MDL-100907-induced flush"}, {"measurement": "effect on MDL-100907-induced pre-naloxone flush (words)", "setting": "[1]; listed as Venlafaxine", "result": "reversed"}, {"measurement": "abatement of 5-HT2a receptor antagonist-induced pre-naloxone flush", "setting": "[1]", "result": 60, "unit": "%"}]}]}
